# From US20200338144A1, “AGENT FOR PREVENTING OR TREATING SMALL INTESTINAL INJURY INDUCED BY NON-STEROIDAL ANTI-INFLAMMATORY DRUG AND PROTON PUMP INHIBITOR” (priority 2017, published 2020)
# System: small intestinal injury induced by an NSAID and a PPI
# Test: Test 1: rate of change of hematocrit values in rats given an NSAID and a PPI
# Format: in vivo, Wister male rats
# Conditions: bacteria 1×10^9 cfu/animal oral once a day
# Protocol: Frozen stocks of the following bacterial strains were statically cultured in GAM broth at 37° C. for 24 hours: the Bifidobacterium bifidum G9-1 strain (B. bifidum G9-1) (Accession No. NITE BP-817), the Bifidobacterium longum reference strain JCM 1217^T (B. longum JCM 1217) (purchased from Japan Collection of Microorganisms (JCM), RIKEN BioResource Research Center), the Bifidobacterium infantis reference strain JCM 1222^T (B. infantis JCM 1222) (purchased from JCM), the Bifidobacterium adolescentis reference strain JCM 1275^T (B. adolescentis JCM 1275) (purchased from JCM), and the Bifidobacterium dentium reference strain JCM 1195^T (B. dentium JCM 1195) (purchased from JCM). Each of the bacterial liquid cultures was inoculated into fresh GAM broth at a ratio (by volume) of liquid culture to GAM broth of 1:100, and statically cultured at 37° C. for 24 hours. […]
# The centrifuged bacterial cells were suspended in 0.75 mL of physiological saline. […] The colonies appeared on the plates were counted, and the number of viable bacteria was calculated based on the dilution factor. […]
# At the start of the experiments, the blood was collected from the tail vein with hematocrit capillary tubes (Thermo Fisher Scientific K.K.) to measure hematocrit values. […] After grouping, the body weight of the animals was measured for nine days, and one of the PPIs (10 mg/kg) was intraperitoneally administered twice a day. […]
substance,measurement,setting,value
Bifidobacterium longum,inhibitory effect on small intestinal injury (hematocrit reduction) induced by ibuprofen and lansoprazole,"ibuprofen 10 mg/kg oral + lansoprazole 10 mg/kg i.p. twice a day, FIG. 7",higher inhibitory effect
same,inhibitory effect on small intestinal injury (hematocrit reduction) induced by ibuprofen and omeprazole,"ibuprofen 10 mg/kg oral + omeprazole 10 mg/kg i.p. twice a day, FIG. 4 (n=5)",higher inhibitory effect
